Results published in PubChem BioAssay (NCI).
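Exposure lasted 48 hours, with cells grown in 96-well plates and compounds tested at five concentrations. TGI is the concentration that stops growth completely.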

How the values were obtained:
Assay in all cases: NCI-60 cell line screen, 48 h
[1] = tested on: SF-539 CNS
[2] = tested on: SNB-75 CNS
[3] = tested on: SF-295 CNS
[4] = tested on: NCI-H23 lung
[5] = tested on: UACC-62 melanoma
[6] = tested on: RPMI-8226 leukemia
[7] = tested on: ACHN renal
[8] = tested on: A549 NSCLC
[9] = tested on: U251 CNS
[10] = tested on: SNB-78 CNS
[11] = tested on: DLD-1 colon
[12] = tested on: SK-OV-3 ovarian
[13] = tested on: IGROV1 ovarian
[14] = tested on: HL-60(TB) leukemia
[15] = tested on: SW-620 colon
[16] = tested on: SF-268 CNS
[17] = tested on: COLO 205 colon
[18] = tested on: 786-0 renal
[19] = tested on: M19-MEL melanoma
[20] = tested on: SK-MEL-5 melanoma
[21] = tested on: HOP-18 NSCLC
[22] = tested on: NCI-H460 lung
[23] = tested on: OVCAR-8 ovarian
[24] = tested on: TK-10 renal
[25] = tested on: SK-MEL-28 melanoma
[26] = tested on: NCI-H226 lung
[27] = tested on: OVCAR-4 ovarian
[28] = tested on: RXF 393 renal
[29] = tested on: EKVX NSCLC
[30] = tested on: MOLT-4 leukemia
[31] = tested on: LXFL 529 NSCLC
[32] = tested on: SR leukemia
[33] = tested on: OVCAR-5 ovarian
[34] = tested on: SNB-19 CNS
[35] = tested on: DMS 114 small cell lung
[36] = tested on: DMS 273 small cell lung
[37] = tested on: OVCAR-3 ovarian
[38] = tested on: HT29 colon
[39] = tested on: LOX IMVI melanoma
[40] = tested on: CCRF-CEM leukemia
[41] = tested on: K-562 leukemia
[42] = tested on: UO-31 renal
[43] = tested on: KM12 colon
[44] = tested on: M14 melanoma
[45] = tested on: A498 renal
[46] = tested on: HCT-116 colon
[47] = tested on: NCI/ADR-RES ovarian
[48] = tested on: HCT-15 colon
[49] = tested on: BT-549 breast
[50] = tested on: T-47D breast
[51] = tested on: DU-145 prostate
[52] = tested on: MCF7 breast
[53] = tested on: HS 578T breast
[54] = tested on: CAKI-1 renal
[55] = tested on: NCI-H522 lung
[56] = tested on: PC-3 prostate
[57] = tested on: MDA-MB-435
[58] = tested on: MALME-3M melanoma
[59] = tested on: HOP-62 NSCLC
[60] = tested on: HCC-2998 colon
[61] = tested on: SN12C renal
[62] = tested on: MDA-N
[63] = tested on: HOP-92 NSCLC
[64] = tested on: MDA-MB-231 breast
[65] = tested on: UACC-257 melanoma
[66] = tested on: SK-MEL-2 melanoma

SMILES: O=C1C(=O)N(C(=O)c2ccc(Cl)c(Cl)c2)c2ccc(Cl)cc21
- TGI [1]: > 100 µM
- TGI [2]: > 100 µM
- TGI [3]: > 100 µM
- TGI [4]: > 100 µM
- TGI [5]: > 100 µM
- TGI [6]: > 100 µM
- TGI [7]: > 100 µM
- TGI [8]: > 100 µM
- TGI [9]: > 100 µM
- TGI [10]: > 100 µM
- TGI [11]: > 100 µM
- TGI [12]: > 100 µM
- TGI [13]: > 100 µM
- TGI [14]: 61.6 µM
- TGI [15]: > 100 µM
- TGI [16]: > 100 µM
- TGI [17]: > 100 µM
- TGI [18]: > 100 µM
- TGI [19]: 39.9 µM
- TGI [20]: > 100 µM
- TGI [21]: > 100 µM
- TGI [22]: > 100 µM
- TGI [23]: > 100 µM
- TGI [24]: > 100 µM
- TGI [25]: > 100 µM
- TGI [26]: > 100 µM
- TGI [27]: > 100 µM
- TGI [28]: > 100 µM
- TGI [29]: > 100 µM
- TGI [30]: > 100 µM
- TGI [31]: > 100 µM
- TGI [32]: > 100 µM
- TGI [33]: > 100 µM
- TGI [34]: > 100 µM
- TGI [35]: 66 µM
- TGI [36]: > 100 µM
- TGI [37]: > 100 µM
- TGI [38]: > 100 µM
- TGI [39]: > 100 µM
- TGI [40]: > 100 µM
- TGI [41]: > 100 µM
- TGI [42]: > 100 µM
- TGI [43]: > 100 µM
- TGI [44]: > 100 µM
- TGI [45]: 63.8 µM

SMILES: COC(=O)[C@@H]1C[C@H]([Se]c2ccccc2)CN1S(=O)(=O)c1ccc(C)cc1
- TGI [1]: > 100 µM
- TGI [2]: 44.5 µM
- TGI [3]: > 100 µM
- TGI [4]: > 100 µM
- TGI [5]: > 100 µM
- TGI [46]: > 100 µM
- TGI [6]: > 100 µM
- TGI [47]: > 100 µM
- TGI [48]: > 100 µM
- TGI [7]: > 100 µM
- TGI [8]: > 100 µM
- TGI [9]: > 100 µM
- TGI [49]: > 100 µM
- TGI [50]: > 100 µM
- TGI [12]: > 100 µM
- TGI [51]: > 100 µM
- TGI [13]: > 100 µM
- TGI [14]: > 100 µM
- TGI [15]: > 100 µM
- TGI [16]: > 100 µM
- TGI [52]: > 100 µM
- TGI [17]: > 100 µM
- TGI [18]: > 100 µM
- TGI [20]: > 100 µM
- TGI [22]: > 100 µM
- TGI [53]: > 100 µM
- TGI [23]: > 100 µM
- TGI [54]: > 100 µM
- TGI [55]: > 100 µM
- TGI [24]: > 100 µM
- TGI [56]: > 100 µM
- TGI [25]: > 100 µM
- TGI [26]: > 100 µM
- TGI [57]: > 100 µM
- TGI [27]: > 100 µM
- TGI [28]: > 100 µM
- TGI [29]: > 100 µM
- TGI [30]: > 100 µM
- TGI [32]: > 100 µM
- TGI [33]: > 100 µM
- TGI [58]: > 100 µM
- TGI [59]: > 100 µM
- TGI [34]: > 100 µM
- TGI [60]: > 100 µM
- TGI [61]: > 100 µM
- TGI [37]: > 100 µM
- TGI [38]: > 100 µM
- TGI [62]: > 100 µM
- TGI [39]: > 100 µM
- TGI [63]: > 100 µM
- TGI [40]: > 100 µM
- TGI [41]: > 100 µM
- TGI [64]: > 100 µM
- TGI [42]: > 100 µM
- TGI [65]: > 100 µM
- TGI [43]: > 100 µM
- TGI [44]: > 100 µM
- TGI [66]: > 100 µM
- TGI [45]: > 100 µM
